In article PMC6925188, “PBRM1 acts as a p53 lysine-acetylation reader to suppress renal tumor growth” (Nature Communications, 2019):

How the values were obtained:
HCT116 cells = assay: RT-qPCR of p53 targets, HCT116 parental and PBRM1 KO cells; format: cell-based; set-up: PUMA expression / PIDD expression: reference not given here; conditions: 50 μM, 24 h
Procedure: Total RNA was extracted from cells using the RNeasy Plus Mini Kit (74136, Qiagen), and the concentration was measured using the NanoDrop ND-1000 system (Thermo Scientific). Reverse transcription was performed using the First Strand cDNA Synthesis Kit (NP100042, Origen) with 0.5 µg total RNA. Real-time PCR was performed with Maxima SYBR Green qPCR Master Mix (K0253, Thermo Scientific) using the Roche LightCycler 480. The primers used for real-time PCR are listed as follows: q-GAPDH-F: […], q-GAPDH-R: […], q-CDKN1A-F: […], q-CDKN1A-R: […], q-MDM2-F: […], q-MDM2-R: […], q-BAX-F: […], q-BAX-R: […], q-PUMA-F: […], q-PUMA-R: […], q-NOXA-F: […], q-NOXA-R: […], q-GADD45a-F: […], q-GADD45a-R: […], q-APAF1-F: […], q-APAF1-R: […], q-BAI1-F: […], q-BAI1-R: […], q-BCL2A1-F: […], q-BCL2A1-R: g[…], q-BTG2-F: […], q-BTG2-R: […], q-CDC25c-F: […], q-CDC25c-R: […], q-FAS-F: […], q-FAS-R: […], q-PIDD-F: […], q-PIDD-R: […], q-RPRM-F: […], q-RPRM-R: […], q-TNFRSF10B-F: […] and q-TNFRSF10B-R: […]. GAPDH was used as an internal control. Data are shown as mean ± SEM for three independent experiments.
Supplementary Figure 4. PBRM1 is required for full p53 transcriptional activity.
a, b. HCT116 parental and PBRM1 KO cells (combination of eight clones) were treated with
(a). RNA was extracted and reverse transcribed from the indicated cells treated with 50 μM
etoposide. […]
p-values were calculated using the paired two -tailed Student’s t-test. c, d. […]

PBRM1-p53 interaction = assay: Co-immunoprecipitation of Flag-PBRM1 and Myc-p53 (anti-Flag M2) in H1299 cells; format: cell-based
Source text: Fig. 1 PBRM1 and p53 display a physical association that is enhanced after DNA damage. a U2OS cells (left) and HEK293T cells (right) were transfected with vector or Flag-PBRM1 and harvested for immunoprecipitation with Flag-M2 beads and elution with 3X Flag peptide. […] Lysates were subjected to immunoprecipitation with Flag-M2 beads. […] Lysates were immunoprecipitated with p53 antibody. The bound PBRM1 and p53 were examined by immunoblots. Source data are provided as a Source Data file.
For anti-Flag immunoprecipitation, cell pellets harvested from one 10 cm culture dish were resuspended in 500 µl hypotonic buffer (10 mM Tris-HCl, pH 8.0, 1.5 mM MgCl2, 10 mM KCl) with protease and phosphatase inhibitors, 2 μM TSA and 10 mM NAM, and samples were incubated on ice for 15 min. Twenty-five microliters of Triton X-100 was added and samples were vortexed for 10 s. After centrifuging for 30 s at 14,000 × g, supernatants were removed and pellets were resuspended in 100 µl hypertonic buffer (20 mM Tris-HCl pH 8.0, 420 mM KCl, 1.5 mM MgCl2, 20% (v/v) glycerol) with protease and phosphatase inhibitors, 2 μM TSA and 10 mM NAM and vortexed for 10 s. Pellets were incubated on ice for 40 min and vortexed for 15 s every 10 min. After centrifuging for 10 min at 14,000 × g, supernatants were collected and diluted with 300 µl EBC buffer (50 mM Tris-HCl (pH 7.5), 120 mM NaCl, 0.5% NP-40) with protease and phosphatase inhibitors, 2 μM TSA and 10 mM NAM. […] Beads were washed four times with EBC buffer and eluted with 3X Flag peptide (F4799, Sigma-Aldrich) overnight at 4 °C. The input and Flag-elution were analyzed by SDS-PAGE and immunoblot.
Supplementary Figure 2. […]
a. Vectors, Flag-PBRM1 or Myc-p53 were transfected into H1299 cells as indicated, and treated with 5 µM nicotinamide or vehicle. Lysates were used for anti-Flag immunoprecipitation and 3X Flag peptide elution. The inputs and eluates were immunoblotted with the indicated antibodies. […]
Flag-PBRM1, wildtype or K382Q mutated Myc-p53 were transfected into H1299 cells with indicated combinations. Lysates were used for anti-Flagimmunoprecipitation followed by Flag peptide elution. […]

SMILES: COc1cc([C@@H]2c3cc4c(cc3[C@@H](O[C@@H]3O[C@@H]5CO[C@@H](C)O[C@H]5[C@H](O)[C@H]3O)[C@H]3COC(=O)[C@H]23)OCO4)cc(OC)c1O [Etoposide]
- APAF1 expression (HCT116 cells; HCT116-PBRM1-KOs, assay 1): 3.8371
- BAX expression (HCT116 cells; HCT116-PBRM1-KOs, assay 1): 1.7963
- BCL2A1 expression (HCT116 cells; HCT116-PBRM1-KOs, assay 1): 19.7667
- BTG2 expression (HCT116 cells; HCT116-PBRM1-KOs, assay 1): 11.7942
- CDKN1A expression (HCT116 cells; HCT116-PBRM1-KOs, assay 1): 22.8639
- GADD45A expression (HCT116 cells; HCT116-PBRM1-KOs, assay 1): 3.9586
- MDM2 expression (HCT116 cells; HCT116-PBRM1-KOs, assay 1): 3.9724
- NOXA expression (HCT116 cells; HCT116-PBRM1-KOs, assay 1): 3.0525
- PIDD expression (HCT116 cells; HCT116-PBRM1-KOs, assay 1): 2.3295
- PUMA expression (HCT116 cells; HCT116-PBRM1-KOs, assay 1): 4.8793
- RPRM expression (HCT116 cells; HCT116-PBRM1-KOs, assay 1): 2.5491
- APAF1 expression (HCT116 cells; HCT116-PBRM1-KOs, assay 2): 1.6529
- BAX expression (HCT116 cells; HCT116-PBRM1-KOs, assay 2): 2.3457
- BCL2A1 expression (HCT116 cells; HCT116-PBRM1-KOs, assay 2): 6.9761
- BTG2 expression (HCT116 cells; HCT116-PBRM1-KOs, assay 2): 7.21
- CDKN1A expression (HCT116 cells; HCT116-PBRM1-KOs, assay 2): 14.0419
- GADD45A expression (HCT116 cells; HCT116-PBRM1-KOs, assay 2): 2.1289
- MDM2 expression (HCT116 cells; HCT116-PBRM1-KOs, assay 2): 5.9039
- NOXA expression (HCT116 cells; HCT116-PBRM1-KOs, assay 2): 3.6808
- PIDD expression (HCT116 cells; HCT116-PBRM1-KOs, assay 2): 1.4093
- PUMA expression (HCT116 cells; HCT116-PBRM1-KOs, assay 2): 7.235
- RPRM expression (HCT116 cells; HCT116-PBRM1-KOs, assay 2): 2.7797
- APAF1 expression (HCT116 cells; HCT116-PBRM1-KOs, assay 3): 1.6644
- BAX expression (HCT116 cells; HCT116-PBRM1-KOs, assay 3): 2.3134
- BCL2A1 expression (HCT116 cells; HCT116-PBRM1-KOs, assay 3): 9.2884
- BTG2 expression (HCT116 cells; HCT116-PBRM1-KOs, assay 3): 7.1602
- CDKN1A expression (HCT116 cells; HCT116-PBRM1-KOs, assay 3): 10.4953
- GADD45A expression (HCT116 cells; HCT116-PBRM1-KOs, assay 3): 3.1241
- MDM2 expression (HCT116 cells; HCT116-PBRM1-KOs, assay 3): 5.945
- NOXA expression (HCT116 cells; HCT116-PBRM1-KOs, assay 3): 3.6554
- PIDD expression (HCT116 cells; HCT116-PBRM1-KOs, assay 3): 1.4897
- PUMA expression (HCT116 cells; HCT116-PBRM1-KOs, assay 3): 3.2117
- RPRM expression (HCT116 cells; HCT116-PBRM1-KOs, assay 3): 1.3828
- APAF1 expression (HCT116 cells; HCT116, assay 1): 4.2871
- BAX expression (HCT116 cells; HCT116, assay 1): 2.7702
- BCL2A1 expression (HCT116 cells; HCT116, assay 1): 22.8639
- BTG2 expression (HCT116 cells; HCT116, assay 1): 12.7286
- CDKN1A expression (HCT116 cells; HCT116, assay 1): 28.6408
- GADD45A expression (HCT116 cells; HCT116, assay 1): 4.4076
- MDM2 expression (HCT116 cells; HCT116, assay 1): 4.6589
- NOXA expression (HCT116 cells; HCT116, assay 1): 3.0738
- PIDD expression (HCT116 cells; HCT116, assay 1): 3.0525
- PUMA expression (HCT116 cells; HCT116, assay 1): 4.4076
- RPRM expression (HCT116 cells; HCT116, assay 1): 3.6301
- APAF1 expression (HCT116 cells; HCT116, assay 2): 2.1372
- BAX expression (HCT116 cells; HCT116, assay 2): 2.6851
- BCL2A1 expression (HCT116 cells; HCT116, assay 2): 13.3173
- BTG2 expression (HCT116 cells; HCT116, assay 2): 8.1398
- CDKN1A expression (HCT116 cells; HCT116, assay 2): 17.6304
- GADD45A expression (HCT116 cells; HCT116, assay 2): 2.5584
- MDM2 expression (HCT116 cells; HCT116, assay 2): 5.7624
- NOXA expression (HCT116 cells; HCT116, assay 2): 3.8683
- PIDD expression (HCT116 cells; HCT116, assay 2): 2.0705
- PUMA expression (HCT116 cells; HCT116, assay 2): 5.3332
- RPRM expression (HCT116 cells; HCT116, assay 2): 2.9362
- APAF1 expression (HCT116 cells; HCT116, assay 3): 2.021
- BAX expression (HCT116 cells; HCT116, assay 3): 2.7226
- BCL2A1 expression (HCT116 cells; HCT116, assay 3): 11.9548
- BTG2 expression (HCT116 cells; HCT116, assay 3): 8.4269
- CDKN1A expression (HCT116 cells; HCT116, assay 3): 15.6707
- GADD45A expression (HCT116 cells; HCT116, assay 3): 3.0105
- MDM2 expression (HCT116 cells; HCT116, assay 3): 5.4264
- NOXA expression (HCT116 cells; HCT116, assay 3): 4.6765
- PIDD expression (HCT116 cells; HCT116, assay 3): 1.9453
- PUMA expression (HCT116 cells; HCT116, assay 3): 3.1939
- RPRM expression (HCT116 cells; HCT116, assay 3): 2.0097
- PBRM1 and exogenous p53 protein levels (PBRM1-p53 interaction; H1299, etoposide 50 μM or bleomycin 10 μg/ml): neither the PBRM1 nor the exogenous p53 levels changed
- PBRM1-p53 interaction (PBRM1-p53 interaction; H1299 co-transfected with PBRM1 and p53, etoposide 50 μM): enhanced
